Source: article PMC5515971, “Utility of spherical human liver microtissues for prediction of clinical drug-induced liver injury” (Archives of Toxicology, 2017)
Read-outs that look alike come from different tables or passages of the source.

What was measured:
[1] = test system: primary human hepatocytes (PHH); test: Cytotoxicity (cellular ATP, CellTiter-Glo) in 2D plated primary human hepatocytes, 48 h treatment; type: cell-based; conditions: for IC50: Hepatocyte, 2D primary human hepatocytes (lot IZT), 48 h treatment, total cellular ATP content, read-out: Geomean IC50;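 for all read-outs here: 384-well plates, luminescence read-out, normalized to vehicle wells with 1% DMSO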
Protocol: Cryopreserved PHH (lot IZT) were thawed in InVitroGro HT™ thawing media at 37 °C, pelleted, and resuspended. Viable hepatocytes were counted by Trypan blue exclusion and plated in black-walled, BioCoat™ collagen 384-well plates at 13,000 cells/well in InVitroGro CP™ plating media supplemented with 1% Torpedo™ Antibiotic Mix and 5% fetal bovine serum and incubated overnight for 18 h. Cells were then treated with compounds for 48 h diluted in InVitroGro HI™ incubation media containing 1% Torpedo Antibiotic Mix, 10% fetal bovine serum, and 1% DMSO. […] Luminescence was determined on an EnVision™ Muliplate Reader (PerkinElmer, Waltham, MA, USA), and data were normalized to vehicle (1% DMSO) control wells.

[2] = test system: 3D human liver microtissues (hLiMT); test: Cytotoxicity (cellular ATP, CellTiter-Glo 2.0) in 3D human liver microtissues, 14 day repeat-dose treatment; conditions: for IC50: Homo sapiens, 336 h
[3] = cited from earlier work; for P/N (DILI positive / DILI negative): P = DILI severity categories 1, 2 and 3, N = categories 4 and 5; for DILI category: clinical, from literature and product labels
[4] = cited from earlier work
[5] = Clinical DILI severity categorization and DILI pattern; conditions: P = DILI severity categories 1, 2 and 3; N = categories 4 and 5
[6] = ref Chen et al 2016 / Chen et al 2011; cited from earlier work
[7] = test system: 3D human liver microtissues (hLiMT); test: Cytotoxicity (cellular ATP) in 3D human liver microtissues, 5-6 days treatment; type: cell-based; conditions: Homo sapiens; hLiMT, 5/6 days, ATP content; read-out: IC50 SHORT;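 note: Hanging-drop spheroids, seven-point dilution series, re-dosed on day 3, CellTiter-Glo 2.0 luminescence, normalized to 0.5 or 1% DMSO vehicle controls on the same plate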
[8] = Hepatocyte, read-out: Geomean IC50 [µM]
[9] = Table 1, ref Garside et al. (2014)
[10] = clinical DILI severity category, 1-5
[11] = human Cmax total, used for IC50/Cmax
[12] = human total plasma Cmax, ref literature values
[13] = table S-5, ref Garside et al. 2014

| SMILES | IC50 [1] [µM] | IC50 [2, 8] [µM] | P/N (DILI positive / DILI negative) [3] | DILI severity category [3, 9] | DILI severity category [3, 10] | DILI category ([3]; ref Garside et al. 2014) | Cmax [4, 11] [nM] | Cmax [4, 12] [nM] | P/N (DILI positive / DILI negative) [5] | classification at 100 μM IC50 threshold ([1]; PHH 48 h) | classification at 100 μM IC50 threshold ([2]; hLiMT 14 days) | LTKB DILI classification [6] | IC50 ([2]; read-out: IC50 LONG) [µM] | IC50 [7] [µM] | FDA DILI Classification DILI severity score [6] | DILI severity category ([3]; table S-4, ref Garside et al. 2014) | classification at 10× MOS threshold ([1]; PHH 48 h) | classification at 10× MOS threshold ([2]; hLiMT 14 days) | classification at 50× MOS threshold ([2]; hLiMT 14 days) | DILI severity category [3, 13] |
| --- | --- | --- | --- | --- | --- | --- | --- | --- | --- | --- | --- | --- | --- | --- | --- | --- | --- | --- | --- | --- |
| O=C(NC1CCN(CCc2c[nH]c3ccccc23)CC1)c1ccccc1 [Indoramin] | > 50 | > 50 | N | 5: No DILI (N = 25) | 5. No DILI | 5. No DILI | 290 | 290 | N |  |  |  |  |  |  |  |  |  |  |  |
| NC(CO)C(=O)NNCc1ccc(O)c(O)c1O (centres unmarked) [Benserazide] | > 500 | > 62.5 | N | 5: No DILI (N = 25) | 5. No DILI | 5. No DILI | 3890 | 3890 | N |  |  |  |  |  |  |  |  |  |  |  |
| CC(C)(C)NC[C@H](O)COc1ccccc1C1CCCC1 [Penbutolol] | 15.7 | ~39 | N | 4: Enzyme elevations in clinic (N = 16) | 4. Enzyme Elevations in Clinic | 4. Enzyme Elevations in Clinic | 1030 | 1030 | N | false positives | false positives | no DILI concern |  |  |  |  |  |  |  |  |
| CC1=C(/C=C/C(C)=C/C=C/C(C)=C/C(=O)O)C(C)(C)CCC1 [Tretinoin] | > 100 | > 17 |  | 3: Low clinical DILI concern (N = 23) | 3. Low Clinical DILI Concern | 3. Low Clinical DILI Concern | 1330 | 1330 |  |  |  | Ambiguous DILI concern | 17 | 29.2 | 3 | 3 |  |  |  |  |
| Cc1ccc(Cl)c(Nc2ccccc2C(=O)O)c1Cl [Meclofenamate] | 292 | ~23.1 | N | 4: Enzyme elevations in clinic (N = 16) | 4. Enzyme Elevations in Clinic | 4. Enzyme Elevations in Clinic | 81100 | 81100 | N |  |  | Ambiguous DILI concern |  |  | 3 |  | false positive | false positive |  |  |
| Cc1cc(CC(=O)O)n(C)c1C(=O)c1ccc(Cl)cc1 [Zomepirac] | > 1000 | > 1000 | N | 5: No DILI (N = 25) | 5. No DILI | 5. No DILI | 13700 | 13700 | N |  |  |  |  |  |  |  |  |  |  |  |
| O=C1CC2(CCCC2)CC(=O)N1CCCCN1CCN(c2ncccn2)CC1 [Buspirone] | > 200 | 163 | N | 4: Enzyme elevations in clinic (N = 16) | 4. Enzyme Elevations in Clinic | 4. Enzyme Elevations in Clinic | 10 | 10 | N |  |  |  |  |  |  |  |  |  | not |  |
| C[N+](C)(C)C[C@H](O)CC(=O)[O-] [Levocarnitine] | > 10000 | > 10000 | N | 5: No DILI (N = 25) | 5. No DILI | 5. No DILI | 85700 | 85700 | N |  |  | no DILI concern |  |  |  |  |  |  |  | 5. No DILI |
| C#CCN(C)Cc1ccccc1 [Pargyline] | > 100 | > 100 | N | 4: Enzyme elevations in clinic (N = 16) | 4. Enzyme Elevations in Clinic | 4. Enzyme Elevations in Clinic | 1000 | 1000 | N |  |  |  |  |  |  |  |  |  |  | 4. Enzyme Elevations in Clinic |
